Measured values as given in patent US9884067B2, “Androgen receptor down-regulating agents and uses thereof” (UNIVERSITY OF MARYLAND EASTERN SHORE, priority 2013, dated 2018).
“And” between values parts separate entries of the source, which are not always exact repeats. Equal entries are not always repeated.

Assays:
[1] = molecular target: T1, AR (Homo sapiens, UniProt P10275, T878A); test: Immunocytochemical analysis of AR expression in LNCaP cells; assay type: cell-based; settings: 5 μM for 48 h
T1 construct: host or cells: LNCaP
T1 sequence (P10275 1-920 T878A): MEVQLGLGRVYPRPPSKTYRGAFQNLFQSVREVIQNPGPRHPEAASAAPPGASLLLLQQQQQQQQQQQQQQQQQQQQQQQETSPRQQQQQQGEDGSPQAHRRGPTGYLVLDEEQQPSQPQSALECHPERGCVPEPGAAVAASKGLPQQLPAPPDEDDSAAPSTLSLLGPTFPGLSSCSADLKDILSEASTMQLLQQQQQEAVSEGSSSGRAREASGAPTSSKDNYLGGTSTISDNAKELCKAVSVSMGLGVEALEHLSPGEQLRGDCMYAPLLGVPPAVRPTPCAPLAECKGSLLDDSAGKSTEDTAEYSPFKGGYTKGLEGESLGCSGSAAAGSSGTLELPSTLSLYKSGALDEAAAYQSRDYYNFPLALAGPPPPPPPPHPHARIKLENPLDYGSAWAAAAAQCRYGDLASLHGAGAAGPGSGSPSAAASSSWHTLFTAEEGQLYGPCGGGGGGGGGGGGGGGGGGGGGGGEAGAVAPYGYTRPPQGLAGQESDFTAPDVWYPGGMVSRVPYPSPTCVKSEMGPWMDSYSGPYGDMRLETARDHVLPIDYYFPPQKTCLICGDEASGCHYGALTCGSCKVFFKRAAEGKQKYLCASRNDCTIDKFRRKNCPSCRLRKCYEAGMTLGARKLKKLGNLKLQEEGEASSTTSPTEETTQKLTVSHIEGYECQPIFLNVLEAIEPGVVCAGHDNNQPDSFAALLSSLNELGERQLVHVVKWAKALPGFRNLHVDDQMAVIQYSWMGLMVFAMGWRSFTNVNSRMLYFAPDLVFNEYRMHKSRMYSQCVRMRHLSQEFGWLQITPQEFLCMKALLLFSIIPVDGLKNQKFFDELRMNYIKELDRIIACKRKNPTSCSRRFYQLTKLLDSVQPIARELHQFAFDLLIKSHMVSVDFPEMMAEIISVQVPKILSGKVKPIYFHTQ

[2] = molecular target: T2, AR-3 (also called AR-V7) (Homo sapiens, UniProt P10275); test: Down-regulation of truncated AR splice variant, western blot in CWR22rv1 cells; assay type: cell-based; settings: CWR22rv1 prostate cancer cell line
T2 construct: endogenous in cells; host or cells: CWR22Rv1
T2 sequence (P10275 1-644 isoform P10275-3): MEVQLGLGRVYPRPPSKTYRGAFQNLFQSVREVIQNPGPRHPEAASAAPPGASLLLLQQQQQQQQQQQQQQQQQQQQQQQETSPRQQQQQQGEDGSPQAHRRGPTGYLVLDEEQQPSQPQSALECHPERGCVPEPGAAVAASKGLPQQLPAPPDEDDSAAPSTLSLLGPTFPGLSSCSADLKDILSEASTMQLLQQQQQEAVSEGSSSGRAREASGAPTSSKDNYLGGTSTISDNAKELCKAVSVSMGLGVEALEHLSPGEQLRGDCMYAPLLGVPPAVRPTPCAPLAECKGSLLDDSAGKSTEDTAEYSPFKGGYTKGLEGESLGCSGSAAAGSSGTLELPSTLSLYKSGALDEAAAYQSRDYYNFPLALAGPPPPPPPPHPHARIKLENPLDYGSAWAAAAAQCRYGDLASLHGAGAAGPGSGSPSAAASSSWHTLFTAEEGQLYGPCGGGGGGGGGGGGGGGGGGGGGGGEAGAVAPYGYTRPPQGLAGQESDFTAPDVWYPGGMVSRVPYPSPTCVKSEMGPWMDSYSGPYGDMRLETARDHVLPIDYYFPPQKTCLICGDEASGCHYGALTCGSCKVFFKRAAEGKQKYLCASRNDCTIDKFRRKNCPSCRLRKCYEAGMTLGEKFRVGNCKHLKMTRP
Method: (§1) Due to the potential implication of AR splice variants lacking the ligand-binding domain (truncated AR) in driving the progression of CRPC, the effects of the compounds on the down-regulation of AR-3 (also called AR-V7) were determined.
(§2) For the Western blot analyses, LNCaP or CWR22v1 prostate cancer cells were cultured. The cells were then treated with the indicated compounds and whole cell lysates were prepared using RIPA lysis buffer (Sigma Aldrich) and protease and phosphatase inhibitors (Sigma Aldrich). All of the antibodies were ordered from cell signaling technology. Protein content was determined using the Bradford Assay (Bio-Rad, Hercules, Calif., USA). Protein was subjected to SDS-PAGE and transferred onto nitrocellulosemembrane. Membranes were then incubated with secondary antibody (cell signaling technology) at room temperature for 1 hour. Bands were visualized by chemiluminescence (Millipore). Protein expression was normalized to β-actin and densitometry was carried out using Image J or ImageQuant 5.0 (Molecular Dynamics, Sunnyvale, Calif., USA).

[3] = system: full-length AR; test: Down-regulation of full-length AR, western blot in CWR22rv1 cells; assay type: cell-based, human; settings: CWR22rv1 prostate cancer cell line
Method: as §1, §2

[4] = molecular target: T3, AR in LNCaP cells (Homo sapiens, UniProt P10275, T878A); test: Whole cell competitive binding assay with [3H]R1881; settings: read-out: inhibition of [3H]R1881 binding / displacement
T3 sequence (P10275 1-920 T878A): T1 sequence (P10275 1-920 T878A)
Method: The androgen receptor competitive binding assays were performed with the synthetic androgen methyltrienolone [^3H]R1881. […] To determine the kinetics of [^3H]R1881 binding to the LNCaP AR cells were plated (2-3×10^5 cells/well) in 24 well multiwell dishes in steroid-free medium and allowed to attach. […] Following a 2 hour incubation period at 37° C., cells were washed twice with ice-cold DPBS and solubilized in DPBS containing 0.5% SDS and 20% glycerol. Extracts were removed and cell associated radioactivity counted in a scintillation counter. The data was analyzed, including Kd and Bmax determination, by nonlinear regression using Graphpad Prism software (GraphPad Software, Inc, San Diego, Calif.). When the concentration of [^3H]R1881 required to almost saturate AR in both cell lines was established (5.0 nM), the ability of the test compounds (1 nM-10 μM) to displace [^3H]R1881 (5.0 nM) from the receptors was determined as described above. The IC50 of each compound was determined by nonlinear regression with Graphpad Prism software (GraphPad Software, Inc, San Diego, Calif.).

[5] = molecular target: T4, human CYP17A1 (CYP171dH) (Homo sapiens, UniProt P05093); test: CYP17 inhibition studies; assay type: biochemical; settings: each in duplicate, from dose-response curves
T4 sequence (P05093 with tags, fused parts or gaps limits assumed): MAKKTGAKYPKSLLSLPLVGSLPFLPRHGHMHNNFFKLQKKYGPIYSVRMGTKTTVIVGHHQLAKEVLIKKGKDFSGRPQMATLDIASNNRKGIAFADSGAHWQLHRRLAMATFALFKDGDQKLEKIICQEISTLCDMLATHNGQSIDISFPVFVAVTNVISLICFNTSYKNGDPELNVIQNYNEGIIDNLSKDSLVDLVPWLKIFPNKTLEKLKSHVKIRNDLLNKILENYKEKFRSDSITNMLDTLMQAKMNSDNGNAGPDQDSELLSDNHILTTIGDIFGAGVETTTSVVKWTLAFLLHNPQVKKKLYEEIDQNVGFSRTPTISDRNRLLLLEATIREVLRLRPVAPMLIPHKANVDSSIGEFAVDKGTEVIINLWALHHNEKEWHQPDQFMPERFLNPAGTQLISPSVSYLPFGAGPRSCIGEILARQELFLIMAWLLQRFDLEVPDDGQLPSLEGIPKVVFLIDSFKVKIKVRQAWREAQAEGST
Method: Some compounds were evaluated for their ability to inhibit CYP17 enzyme. A truncated version of human CYP17A1 (CYP171dH) was expressed in E. coli and then purified to homogeneity.

[6] = molecular target: T1, AR; test: AR down-regulation, western blot analysis in LNCaP cells; assay type: cell-based; settings: at 15 μM, 24 h
Method: For the Western blot analyses, LNCaP or CWR22v1 prostate cancer cells were cultured. The cells were then treated with the indicated compounds and whole cell lysates were prepared using RIPA lysis buffer (Sigma Aldrich) and protease and phosphatase inhibitors (Sigma Aldrich). All of the antibodies were ordered from cell signaling technology. Protein content was determined using the Bradford Assay (Bio-Rad, Hercules, Calif., USA). Protein was subjected to SDS-PAGE and transferred onto nitrocellulosemembrane. Membranes were then incubated with secondary antibody (cell signaling technology) at room temperature for 1 hour. Bands were visualized by chemiluminescence (Millipore). Protein expression was normalized to β-actin and densitometry was carried out using Image J or ImageQuant 5.0 (Molecular Dynamics, Sunnyvale, Calif., USA). CWR22Rv1 cells were used for endogenous levels of splice variant AR-3. Protein levels were analyzed with respective antibodies; full length AR and β-actin antibodies were purchased from cell signaling, antibody specific for splice variant AR-3 was obtained from Dr. Yun Qiu, University of Maryland, School of Medicine, Baltimore.

[7] = system: LNCaP cells; test: MTT colorimetric anti-proliferative assay; assay type: cell-based, human
Method: The cells were treated for 7 days with renewal of test compound and media on day 4. On the 7th day, medium was renewed and MTT (3-(4,5-dimethylthiazol-2-yl)-2,5-diphenyl-2H-tetrazolium bromide) (Sigma, St Louis, Mo., USA) solution (0.5 mg MTT per ml of media) was added to the medium such that the ratio of MTT: medium was 1:10. The cells were incubated with MTT for 2 hours. The medium was then aspirated and DMSO was added to solubilize the violet MTT-formazan product.

C[C@]12CC[C@H](OC(=O)n3ccnc3)CC1=CC[C@@H]1[C@@H]2CC[C@]2(C)C(n3cnc4ccccc43)=CC[C@@H]12 [Compound 47, 3β-(1H-Imidazole-1-carboxylate)-17-(1H-benzimidazol-1-yl)-androsta-5,16-diene]
melting point: 194 to 196 °C | AR levels in the nucleus [1]: significant decrease in AR levels in the nucleus | down-regulation of truncated AR (AR-3) [2]: significant down-regulation | down-regulation of full-length AR [3]: significant down-regulation | inhibition at 30 µM [4]: 20% | IC50 [5]: 93.7 to 258 µM and 122 µM | AR down-regulation, fold more active than compound 5 [6]: greater than 8 fold | GI50 ([7]; Homo sapiens, LNCaP, 168 h, LNCaP, MTT, 7 days, Table 4, read-out: GI50 of C-3 modified compounds): 0.87 µM | fold superior anti-proliferative activity ([7]; relative to compound 5): ~4 fold
